# Data: US5852049A, “Aromatic ethers derived from indoles which are useful as medicaments” (Pierre Fabre Medicament, priority 1994, dated 1998)
# Structures can show the parent of a compound that is named as a salt. Where two headings read alike, the source gives them in different places.
# Legend:
# human 5HT1Dβ = target: T1, human 5HT1Dβ (Homo sapiens, UniProt P28222); experiment: binding to human 5HT1Dβ receptor
# T1 construct: expressed in transfected cells; host or cells: Cos-7 and CHO-K1
# Description: (§1) The study of the binding of the derivatives of the present invention with the human 5HT1Dα, 5HT1Dβ and 5HT1A receptors was carried out according to the method described by P. Pauwels and C. Palmier (Neuropharmacology, 33, 67, 1994).
# (§2) The incubation media for these binding measurements comprise 0.4 ml of cell membrane preparation, 0.05 ml of a tritiated ligand [[3H]-5CT (final concentration: 2 nM) for the 5HT1Dα and 5HT1Dβ receptors and [3H]-8OH-DPAT (final concentration: 1 nM) for the 5HT1A receptor] and 0.05 ml of the molecule to be tested (final concentrations: 0.1 to 1000 nM) or 10 μM (final concentration) of serotonin (5HT1Dα and 5HT1Dβ) or 1 μM (final concentration)of spiroxatrine (5HT1A).
# human 5HT1Dα = target: T2, human 5HT1Dα (Homo sapiens, UniProt P28221); experiment: binding to human 5HT1Dα receptor
# T2 construct: expressed in transfected cells; host or cells: Cos-7 and CHO-K1
# T2 sequence (P28221 whole entry): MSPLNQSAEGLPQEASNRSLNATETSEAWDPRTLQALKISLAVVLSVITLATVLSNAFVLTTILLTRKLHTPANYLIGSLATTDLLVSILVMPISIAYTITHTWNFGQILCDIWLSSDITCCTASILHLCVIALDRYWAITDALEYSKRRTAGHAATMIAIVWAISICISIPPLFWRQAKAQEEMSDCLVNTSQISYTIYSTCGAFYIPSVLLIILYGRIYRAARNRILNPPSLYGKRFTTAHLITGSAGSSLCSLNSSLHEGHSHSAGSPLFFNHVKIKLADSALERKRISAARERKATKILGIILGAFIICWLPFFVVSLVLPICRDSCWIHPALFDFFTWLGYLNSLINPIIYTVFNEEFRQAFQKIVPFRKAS
# Description: as §1, §2
# human 5HT1A = target: T3, human 5HT1A (Homo sapiens, UniProt P08908); experiment: binding to human 5HT1A receptor (HeLa HA7 cell line)
# T3 construct: expressed in transfected cells; host or cells: HeLa HA7
# T3 sequence (P08908 1-422): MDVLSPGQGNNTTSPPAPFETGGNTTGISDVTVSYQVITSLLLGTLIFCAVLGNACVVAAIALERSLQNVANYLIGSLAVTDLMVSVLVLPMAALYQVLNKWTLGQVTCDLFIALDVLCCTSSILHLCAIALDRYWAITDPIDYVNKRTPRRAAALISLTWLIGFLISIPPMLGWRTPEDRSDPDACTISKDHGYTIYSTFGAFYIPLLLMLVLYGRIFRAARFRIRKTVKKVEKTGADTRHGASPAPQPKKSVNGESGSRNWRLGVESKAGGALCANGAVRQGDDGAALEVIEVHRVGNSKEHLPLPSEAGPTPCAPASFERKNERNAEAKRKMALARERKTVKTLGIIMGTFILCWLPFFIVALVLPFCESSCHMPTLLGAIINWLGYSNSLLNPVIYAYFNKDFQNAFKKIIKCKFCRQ
# Description: The HeLa HA7 cell line expressing the human 5HT1A receptor was obtained from Tulco (Duke Univ., Durham, N.C., USA) and cultured according to the method of Fargin et al., J. Biol. Chem. 264, 14848 (1989).
# Palmier (Neuropharmacology, 33, 67, 1994).
# rabbit saphenous vein = experiment: contraction of the rabbit saphenous vein rings mediated by the 5HT1-like receptors; type: cell-based; settings: Oryctolagus cuniculus; for Emax: read-out: Relative Emax; for EC50: read-out: pD2 (converted)
# Description: The derivatives of the present invention are, in addition, capable, like serotonin, of inducing the contraction of the rabbit saphenous vein rings mediated by the "5HT1-like " receptors.
# The technique used was adapted from Van Heuven-Nolsen D. et al., Eur. J. Pharmacol. 191, 375-382 (1990) and from Martin G. R. and Mc Lennan S. J., Naunyn-Schmiedeberg's Arch. Pharmacol. 342, 111-119 (1990) and therefore makes it possible to determine a pD2 value and an Emax relative to serotonin for each product tested.
# [1] = human receptor, [3H]-5CT 2 nM, read-out: Ki 5HT1Dβ
# [2] = human receptor, HeLa HA7, [3H]-8OH-DPAT 1 nM, read-out: Ki 5HT1A
# [3] = Emax of the compound relative to Emax of serotonin
# [4] = contraction of the rabbit saphenous vein
# T1 sequence (P28222 whole entry): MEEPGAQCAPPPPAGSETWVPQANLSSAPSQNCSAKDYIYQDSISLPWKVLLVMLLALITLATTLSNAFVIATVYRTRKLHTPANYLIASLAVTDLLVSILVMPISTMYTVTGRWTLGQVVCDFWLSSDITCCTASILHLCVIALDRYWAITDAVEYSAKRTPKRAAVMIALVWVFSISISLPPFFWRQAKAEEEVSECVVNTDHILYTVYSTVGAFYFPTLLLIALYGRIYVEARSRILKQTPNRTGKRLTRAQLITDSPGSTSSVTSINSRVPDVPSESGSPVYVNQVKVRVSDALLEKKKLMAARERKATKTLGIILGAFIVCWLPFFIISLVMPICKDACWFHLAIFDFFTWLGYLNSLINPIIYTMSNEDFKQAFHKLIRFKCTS
SMILES,Ki (human 5HT1Dα),EC50 (rabbit saphenous vein; [4]),Emax (rabbit saphenous vein),Ki (human 5HT1Dβ),Ki (human 5HT1A),other results
"N#CCCCCCOc1ccc2[nH]cc(CCN)c2c1 [Example 17, 6-[3-(2-Aminoethyl)-1H-indol-5-yloxy]hexanitrile hydrochloride]",2.2 nM,,,,,Ki (human 5HT1Dβ; [1]): 2.6 nM; Ki (human 5HT1A; [2]): 24.3 nM
"CNS(=O)(=O)CCc1ccc2[nH]cc(C3CCN(C)CC3)c2c1 [Naratriptan, reference compound]",,2880 nM,,,,"Ki (human 5HT1Dβ; [1]): 2 nM; Ki (human 5HT1Dα; human receptor, [3H]-5CT 2 nM, read-out: Ki 5HT1Dα): 1.6 nM; Emax (rabbit saphenous vein; [3]): 100%; Ki (human 5HT1A; [2]): 46 nM"
"CCOC(=O)CCCCOc1ccc2[nH]cc(CCN)c2c1 [Example 13, Ethyl 5-[3-(2-aminoethyl)-1H-indol-5-yloxy]pentanoate hydrochloride]",,309 nM,120%,,,
"CCOC(=O)CCCOc1ccc2[nH]cc(CCN)c2c1 [Example 12, Ethyl 4-[3-(2-aminoethyl)-1H-indol-5-yloxy)-butyrate hydrochloride]",,692 nM,80%,,,
"CS(=O)(=O)NCCCCCCOc1ccc2[nH]cc(CCN)c2c1 [Example 19, N-{6-[3-(2-Aminoethyl)-1H-indol-5-yloxy]hexyl}methanesulfonamide hydrochloride]",1.1 nM,,100%,0.7 nM,11.5 nM,EC50 (rabbit saphenous vein): 15.8 nM
"CNS(=O)(=O)Cc1ccc2[nH]cc(CCN(C)C)c2c1 [Sumatriptan, reference compound]",,1780 nM,,,,Emax (rabbit saphenous vein; [3]): 126%
"NCCCCCCOc1ccc2[nH]cc(CCN)c2c1 [Example 18, 6-[3-(2-Aminoethyl)-1H-indol-5-yloxy]hexylamine hydrochloride]",2.4 nM,,,2 nM,78.6 nM,
"CC(=O)OCCCCOc1ccc2[nH]cc(CCN)c2c1 [Example 23, 4-[3-(2-Aminoethyl)-1H-indol-5-yloxy]butylacetate hydrochloride]",0.9 nM,,,0.4 nM,40 nM,
"CC(C)OC(=O)CCCCCOc1ccc2[nH]cc(CCN)c2c1 [Example 16, Isopropyl 6-[3-(2-aminoethyl)-1H-indol-5-yloxy]hexanoate hydrochloride]",1.5 nM,240 nM,136%,0.7 nM,9 nM,
"CCNC(=O)CCCCCOc1ccc2[nH]cc(CCN)c2c1 [Example 20, 6-[3-(2-Aminoethyl)-1H-indol-5-yloxy]-N-ethylhexanamide hydrochloride]",,,,,,"Ki (human 5HT1Dβ; read-out: Ki 5HT1Dβ, human receptor, [3H]-5CT 2 nM): 1.1 nM; Ki (human 5HT1Dα; read-out: Ki 5HT1Dα, human receptor, [3H]-5CT 2 nM): 2 nM; Ki (human 5HT1A; read-out: Ki 5HT1A, human receptor, HeLa HA7, [3H]-8OH-DPAT 1 nM): 46.5 nM"
